Legend:
LXRα = target: T1, LXRα (Homo sapiens, UniProt Q13133); assay: LXR antagonistic activity, GAL-hLXR luciferase transfection assay in CV-1 cells; format: cell-based; conditions: antagonism, together with agonist TO901317 (2.5 μM), 24 hours
T1 sequence (Q13133 209-447 limits assumed): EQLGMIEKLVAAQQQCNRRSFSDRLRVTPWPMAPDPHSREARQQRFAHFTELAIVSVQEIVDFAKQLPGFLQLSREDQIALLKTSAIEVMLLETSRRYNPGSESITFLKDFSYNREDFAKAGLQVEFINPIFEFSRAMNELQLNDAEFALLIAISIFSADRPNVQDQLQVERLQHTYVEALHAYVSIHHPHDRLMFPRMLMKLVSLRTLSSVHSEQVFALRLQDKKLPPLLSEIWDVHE
Protocol: (§1) Animal cell line CV-1 was used in transfection search. Cells were cultured in DMEM medium within a cell culture device containing 5% carbon dioxide at 37° C. The medium contained 10% FBS (fetal bovine serum), 100 U/ml penicillin, and 100 μg/ml streptomycin. On day 1 of the experiment, CV 1 cells were seeded in 96 well plates at 5,000 cells/well. On day 2, the seeded cells were transfected with plasmid expressing GAL-hLXR, plasmid expressing Luciferase gene, and plasmid expressing β-galactocidase by using a transfection reagent, Superfect (QIAGEN). After 16 hours, the transfected cells were treated with the compound 1 dissolved in dimethylsulfoxide (DMSO) by the concentrations, together with the agonist, TO901317 (2.5 μM). Cells treated with dimethylsulfoxide having the final concentration of 1% were used as a negative control group, and cells treated with T0901317 having the final concentration of 500 nM were used as a positive control group. The cells were cultured for 24 hours, and lysed by using a lysis buffer. […] The β-galactosidase activity, after adding of an ONPG reagent, was measured using an ELISA reader. The measured Luciferase value was corrected by activity value of β-galactosidase. […] In addition, the activities on various nuclear receptors were measured by using the same method, in order to measure selectivity for various nuclear receptors.

LXRβ = target: T2, LXRβ (Homo sapiens, UniProt P55055); assay: as above; format: cell-based; conditions: antagonism, together with agonist TO901317 (2.5 μM), 24 hours
T2 sequence (P55055 222-460 limits assumed): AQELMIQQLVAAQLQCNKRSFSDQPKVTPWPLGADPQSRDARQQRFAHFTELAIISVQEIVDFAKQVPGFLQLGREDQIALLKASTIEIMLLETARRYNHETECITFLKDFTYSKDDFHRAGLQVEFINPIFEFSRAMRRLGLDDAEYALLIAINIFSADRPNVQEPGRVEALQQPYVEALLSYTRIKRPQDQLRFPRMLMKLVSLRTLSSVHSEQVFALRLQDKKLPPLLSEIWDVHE
Protocol: as §1

[1] = Solubility in organic solvents; format: physicochemical
C3H/10T1/2 cells = assay: Osteoblast formation activity (calcium deposition assay, Alizarin Red S); format: cell-based, mouse
Protocol: C3H/10T1/2 cells, which are mouse mesenchymal progenitor cells purchased from ATCC, were diluted in DMEM (Dulbecco's Modified Eagle Medium) medium containing 5.958 g/L HEPES, 3.7 g/L sodium bicarbonate, and 10% FBS (fetal bovine serum), and cultured in 24-well culture plates at a density of 4×10^4 cells/well, in the presence of 5% CO2 at 37° C. for 2 days. The cultured cells were grown to 90˜100% confluency in the culture plates, the cells were cultured in DMEM medium containing 10% FBS, to which 10 mM of β-glycerophosphate and 50μ/ml of ascorbic acid were added, in the presence of 5% CO2 at 37° C. for 6 days, to induce differentiation into osteoblast. The medium was exchanged every other day during differentiation. The C3H/10T1/2 cell line, in which differentiation into the osteoblast was induced, was washed with PBS (Phosphate Buffered Saline) once, and fixed with 70% ethanol at 20° C. for 1 hour. The cells after fixing were washed with cold PBS three times, and stained with 40 mM Alizarin Red S dye solution at room temperature for 20 minutes. The dye solution was removed and the cells were washed with distilled water three times in order to selectively observe only the cells differentiated into the osteoblast.
An aliquot 116V and an aliquot 116VI extracted and partitioned from sponges are dissolved in a DMSO solvent, and used to treat the C3H/10T1/2 cell line, mesenchymal progenitor cells, at concentrations of 1, 2.5, 5, 10, and 20 ug/ml. […] Since then, the same experiment was performed on the compound (1163), the compound 2 (1162), the compound 3 (1161), and the compound 4 (1164), which were purely separated from the aliquots 116V and 116VI, and as a result, it could be confirmed that the osteoblast differentiation ability was increased in the compounds 1, 3, and 4. […] To study a mechanism with respect to osteoblast differentiation ability, the C3H/10T1/2 cell lines were treated with the compound 1 and the compound 4 for 6 days, respectively. […] Also, the C3H/10T1/2 cell lines were treated with the compound 1 and the compound 4 for 6 days, respectively. […] Furthermore, it could be ascertained that combining of Runx2 and TAZ proteins was increased by treatment of the compounds and thus the activity of Runx2-meditated transcription was increased. The compound 5, which is an ester derivative of the compound 1 (1163), was synthesized in order to prepare a material having more excellent bioactivity, and the structure of the compound 5 obtained thus was determined. […] Therefore, the compounds of the present invention and derivatives thereof are expected to promote the differentiation of the osteoblast and thus play an innovative role in treatment of osteoporosis.

Runx2 and TAZ = assay: Western blot of osteoblast differentiation mark factors; format: cell-based, mouse; conditions: C3H/10T1/2 treated for 6 days
Protocol: An aliquot 116V and an aliquot 116VI extracted and partitioned from sponges are dissolved in a DMSO solvent, and used to treat the C3H/10T1/2 cell line, mesenchymal progenitor cells, at concentrations of 1, 2.5, 5, 10, and 20 ug/ml. […] Since then, the same experiment was performed on the compound (1163), the compound 2 (1162), the compound 3 (1161), and the compound 4 (1164), which were purely separated from the aliquots 116V and 116VI, and as a result, it could be confirmed that the osteoblast differentiation ability was increased in the compounds 1, 3, and 4. […] To study a mechanism with respect to osteoblast differentiation ability, the C3H/10T1/2 cell lines were treated with the compound 1 and the compound 4 for 6 days, respectively. […] Also, the C3H/10T1/2 cell lines were treated with the compound 1 and the compound 4 for 6 days, respectively. […] Furthermore, it could be ascertained that combining of Runx2 and TAZ proteins was increased by treatment of the compounds and thus the activity of Runx2-meditated transcription was increased. The compound 5, which is an ester derivative of the compound 1 (1163), was synthesized in order to prepare a material having more excellent bioactivity, and the structure of the compound 5 obtained thus was determined. […]

C57BL/6 mice = assay: Fatty liver inhibitory efficacy in T0901317-induced fatty liver model; format: in vivo, mouse
Source text: In order to verify the fatty liver inhibitory efficacy of the compound 1 developed in the present invention, C57BL/6 mice were used in this experiment. A fatty liver model was constructed by administering T0901317, which generates fatty liver, to 10-week age C57BL/6 mice while feeding the C57BL/6 mice with general feed-additive. The fatty liver inhibitory efficacy of the compound 1 was observed by orally administering this compound. A mouse fed with 0.75% of only carboxymethylcellulose, as a medication deliver, was used for a negative control group, and a mouse fed with only TO901317 was used for a positive control group. In addition, in order to analyze gene expression of C57BL/6 mouse liver, the mouse livers of the negative control group, the positive control group, and the treatment group were extracted and treated with Trizol, to obtain RNAs. The obtained RNAs were quantified using an absorption spectrometer (Nanodrop), and cDNAs were obtained from RNAs having the same amount among respective groups through an RT-PCR method using oligo dT and reverse transcriptase. The real-time polymerase chain reaction was performed using cDNAs, which were obtained for analysis of mRNA change among groups, as templates, and using primers of transporter genes related to fat synthesis and inflow of fat to the liver. […] Accordingly, the compounds of the present invention and derivatives thereof are expected to play a very innovative role in treatment of alcoholic fatty liver, non-alcoholic fatty liver, and fatty liver due to viral infection.

CC(C)=CCC/C(C)=C/[C@H]1CC(C)=C[C@@]2(C=C(CO)[C@@H]3CC(=O)C(C)=C[C@@H]3O2)O1 [Compound 1]
IC50 (LXRα): 18.7 nM
IC50 (LXRβ): 20.4 nM
Solubility [1]: Easily Dissolved in Organic Solvent of Acetone, Methanol, DMSO, etc.
osteoblast differentiation ability, concentration dependence (C3H/10T1/2 cells; C3H/10T1/2, 1, 2.5, 5, 10, and 20 ug/ml, 6 days): remarkably increased at the concentrations of up to 10 ug/ml in a concentration-dependent manner
osteoblast differentiation ability (C3H/10T1/2 cells; C3H/10T1/2, calcium deposition): increased
concentration at which cytotoxicity was observed (C3H/10T1/2 cells; C3H/10T1/2 during osteoblast differentiation): 20000 ng/mL
protein expression of Runx2 and TAZ (Runx2 and TAZ): increased
liver expression of fatty acid synthetic genes and transporter genes of transporting fats to the liver (C57BL/6 mice; mouse liver, real-time PCR): inhibits the expression
fatty liver inhibitory efficacy (C57BL/6 mice; oral administration, T0901317-induced fatty liver, C57BL/6 mice): very superior fatty liver inhibitory efficacy
body weight among the treatment group and the control groups (C57BL/6 mice; oral administration, fatty liver-induced C57BL/6 mice): no difference in body weight

Source: patent publication US8703813B2, “Compound with spiro chiral carbon backbone, preparation method thereof, and pharmaceutical composition containing the same” (SNU R & DB Foundation, priority 2008, dated 2014)
